According to paper PMC10021052, “Novel multivalent S100A8 inhibitory peptides attenuate tumor progression and metastasis by inhibiting the TLR4-dependent pathway” (Cancer Gene Therapy, 2023):
“Also recorded” adds a separate entry of the source. One block for each molecule: values may come before it.

Tests used:
TLR4/MD-2 complex = target: T1, TLR4/MD-2 complex (Homo sapiens, UniProt O00206+Q9Y6Y9); experiment: Divalent peptide library screening and ILVIK derivatives, binding to TLR4/MD-2 (ELISA); conditions: ELISA-based, Fig. 7A, D
T1 construct: TLR4/MD-2 recombinant protein (2 µg/ml) was added to each well
Description: Spot synthesis of divalent peptides on a cellulose membrane was performed using a ResPep SL SPOT synthesizer (INTAVIS Bioanalytical Instruments AG, Koeln, Germany) as described previously. Briefly, Fmoc-β-Ala-OH (Watanabe Chemical Industries, Hiroshima, Japan) was used in the first cycle, followed by amino hexanoic acid as a spacer. Fmoc-Lys(Fmoc)-OH (Watanabe Chemical Industries) was used for the next cycle to form two branches in the peptide chain for the subsequent synthesis of the various motifs. The synthesis of each peptide was confirmed by staining the membrane using bromophenol blue (1% in N, N′-dimethylformamide), which reacts with free amino residues. Free amino residues are produced only after the completion of all reactions and before deprotection of the side chain residues. […]
S100A8 recombinant protein was purified as previously described. […] Absorbance OD450/OD650 was measured using a microplate reader (Thermo Fisher Scientific). […] The amount of interleukin-8 (IL-8) or VEGF in the supernatants were analyzed by ELISA kits (R&D Systems, Mineapolis, MN) according to the manufacturer’s instructions.
Fig. 7 Isolation of multivalent S100A8 inhibitory peptides using divalent peptide libraries based on the sequences of peptide3A5. […] The binding affinities to TLR4/MD-2 complex were determined using an ELISA-based assay. […]

human TLR4/MD-2 complex [1] = experiment: ELISA, TLR4/MD-2 binding to immobilized S100A8-derived peptides (overlapping peptides, alanine scan); conditions: alanine scan on peptide #3, compared with parental peptide#3, peptide3A5 *P = 0.013
Description: (§1) S100A8 recombinant protein was purified as previously described. These proteins were immobilized on Maxisorp plates (Thermo Fisher Scientific, Waltham, MA, USA), followed by blocking with protein-free blocking buffer (Thermo Fisher Scientific). TLR4/MD-2 recombinant proteins with various concentrations of candidate peptides were then added to the indicated S100A8-immobilized ELISA plates for 2 h. The plates were washed, incubated with anti-TLR4 antibody, and HRP-conjugated secondary antibody, followed by the addition of substrate. The reaction was stopped by addition a 2N H2SO4 solution. Absorbance OD450/OD650 was measured using a microplate reader (Thermo Fisher Scientific). Maxisorp plates were also used for peptide coating. After blocking with protein-free blocking buffer, the coated plates were washed, and TLR4/MD-2 recombinant protein (2 µg/ml) was added to each well. The plates were incubated with a TLR4 antibody followed by horseradish peroxidase (HRP)-labeled anti-rabbit IgG. For detection of IL8 and VEGF in culture supernatants, SW480 cells were pretreated with the indicated peptides, and followed by stimulation with S100A8 for 24 h. The amount of interleukin-8 (IL-8) or VEGF in the supernatants were analyzed by ELISA kits (R&D Systems, Mineapolis, MN) according to the manufacturer’s instructions.
(§2) Fig. 2 Identification of S100A8 binding sites to human TLR4/MD-2. […] TLR4/MD-2 recombinant proteins were immobilized to the ELISA plate. After blocking, a full length or deletion mutant of S100A8 was added to the plate. The more detailed methods are described in Materials and Methods. […] B A series of overlapping S100A8 synthetic peptides. The TLR4/MD-2 recombinant proteins were added to each well of peptide immobilized plates. The affinity to TLR4/MD-2 was determined. Data are shown as mean ± SD. C The competitive activity was determined using ELISA. Data are shown as mean ± SD. D The TLR4/MD-2 was mixed with S100A8 with/without the indicated peptides, and immunoprecipitated using an anti-TLR4 antibody. TLR4 or S100A8 was visualized. Similar results were obtained in three independent experiments. […] Total RNAs from SW480 cells with/without treatment of the peptide candidates were extracted and qPCR analysis was performed using relevant primer sets and SYBR green. Relative expression levels were compared. […] TEXT PRINTED IN THE PICTURE: (A) Full length: TLR4/MD-2 binding: + | (A) S100A8-ΔC: TLR4/MD-2 binding: − | (A) S100A8-N: TLR4/MD-2 binding: −
Fig. 3 Identification of high affinity peptides to TLR4/MD-2 using alanine scanning based on the peptide #3 amino acid sequences. A Lists of peptides used for alanine scanning. […] Similar results were obtained in three independent experiments.

S100A8-TLR4/MD-2 complex = experiment: Competitive inhibition of S100A8-TLR4/MD-2 binding (ELISA, S100A8 immobilized; also immunoprecipitation); parameters: species or system human; conditions: for competitive inhibition, potency compared with parent: ELISA, peptide3A5 vs peptide #3 (Fig. 3B), divalent vs monomer (Fig. 4A); for competitive inhibitory activity against TLR4/MD-2, peptide3A5-derived peptides: competitive inhibitory assay, Fig. 7B, E, *P < 0.05 vs TLR4/MD-2/S100A8
Description: as §1, §2
(§3) Fig. 4 Improvement of competitive inhibition activity by divalent peptide3A5. A The binding capacity was measured at the indicated concentration using an ELISA-based assay. Similar results were obtained in three independent experiments. B SW480 cells were pretreated with 2.5 µM of divalent peptide3A5, and then stimulated with human S100A8 recombinant protein. After 30 min, cell lysates were subjected to western blotting using the indicated antibody. The divalent peptide#3 or peptide3A5 reduced the expression of S100A8-mediated IL-8 (C) and VEGF (D) induction. Total RNAs from SW480 cells with/without treatment of the peptide candidates were extracted and qPCR analysis was performed using relevant primer sets and SYBR green. Relative expression levels were compared. Peptide #3 suppresses S100A8-mediated IL-8(E) and VEGF (F) secretion in SW480 cells.

SW480 cells [2] = experiment: qPCR, S100A8-mediated IL-8 and VEGF mRNA induction in SW480 cells; type: cell-based, human; conditions: qPCR, normalized to β-actin
Description: SW480 cells were treated with S100A8 in Dulbecco’s Modified Eagle Medium/HamF12 supplemented with 0.1% bovine serum albumin for cytokine induction. Total RNA was extracted using the RNeasy Mini Plus (Qiagen, Hilden, Germany). Complementary DNA was synthesized using the PrimeScript 1st Strand Synthesis kit (Takara Bio, Japan). Quantitative PCR (qPCR) analysis was performed using the PowerUp^TM SYBR^TM Green mixture (Thermo Fisher Scientific) and the StepOnePlus Real Time PCR System (Thermo Fisher Scientific). Gene expression levels were calculated from Ct values, and the relationship between the Ct value and the logarithm of the copy number of a target gene was confirmed to be on a linear line using the corresponding isolated DNA and its serial dilutions as a standard. Thus, the gene expression levels of IL-8 and VEGF were normalized against that of β-actin in each sample. The following primers were used; β-actin, 5′-[…]-3′ and 5′-[…]-3′; IL-8, 5′-[…]-3′ and 5′-[…]-3′; VEGF, 5′-[…]-3′ and 5′-[…]-3′.
as §2, §3

PKH26-labeled LLC cells = experiment: Lung dissemination of PKH26-labeled LLC cells in TCM-sensitized mice; type: in vivo, C57BL/6J mice; conditions: 10 mg/kg i.p. 1 h before last TCM injection; lungs 16 h after cells; 5–6 mice per group; *P < 0.05 vs control
[3] = test system: SW480-transplanted xenograft; experiment: Tumor growth in SW480-transplanted xenograft model; type: in vivo, Balb nu/nu mice; conditions: SW480 xenograft, various concentrations every 3 days, *P < 0.05 vs control
[4] = test system: tumor cells and macrophages; experiment: Cytokine/chemokine induction in tumor cells and macrophages; type: cell-based; conditions: possible mechanism scheme, Fig. 7I
human TLR4/MD-2 complex [5] = experiment: ELISA, S100A8 protein or mutant binding to TLR4/MD-2; conditions: recombinant S100A8 full length or mutant
Description: as §1
Fig. 2 Identification of S100A8 binding sites to human TLR4/MD-2. […] TLR4/MD-2 recombinant proteins were immobilized to the ELISA plate. After blocking, a full length or deletion mutant of S100A8 was added to the plate. The more detailed methods are described in Materials and Methods. […] B A series of overlapping S100A8 synthetic peptides. The TLR4/MD-2 recombinant proteins were added to each well of peptide immobilized plates. The affinity to TLR4/MD-2 was determined. Data are shown as mean ± SD. C The competitive activity was determined using ELISA. Data are shown as mean ± SD. D The TLR4/MD-2 was mixed with S100A8 with/without the indicated peptides, and immunoprecipitated using an anti-TLR4 antibody. TLR4 or S100A8 was visualized. […]

[6] = target: tetravalent ILVIK (human); experiment: ELISA; tetravalent ILVIK immobilised; after blocking TLR4/MD-2 proteins added at various concentrations (Fig. 7F)
mouse TLR4/MD-2 complex = conditions: ref [8]; cited from earlier work
SW480 cells [7] = experiment: ELISA, IL-8 and VEGF secretion of SW480 cells; type: cell-based, human; conditions: SW480 cells; data not shown
Description: as §1

T1 sequence (O00206 24-631 limits assumed): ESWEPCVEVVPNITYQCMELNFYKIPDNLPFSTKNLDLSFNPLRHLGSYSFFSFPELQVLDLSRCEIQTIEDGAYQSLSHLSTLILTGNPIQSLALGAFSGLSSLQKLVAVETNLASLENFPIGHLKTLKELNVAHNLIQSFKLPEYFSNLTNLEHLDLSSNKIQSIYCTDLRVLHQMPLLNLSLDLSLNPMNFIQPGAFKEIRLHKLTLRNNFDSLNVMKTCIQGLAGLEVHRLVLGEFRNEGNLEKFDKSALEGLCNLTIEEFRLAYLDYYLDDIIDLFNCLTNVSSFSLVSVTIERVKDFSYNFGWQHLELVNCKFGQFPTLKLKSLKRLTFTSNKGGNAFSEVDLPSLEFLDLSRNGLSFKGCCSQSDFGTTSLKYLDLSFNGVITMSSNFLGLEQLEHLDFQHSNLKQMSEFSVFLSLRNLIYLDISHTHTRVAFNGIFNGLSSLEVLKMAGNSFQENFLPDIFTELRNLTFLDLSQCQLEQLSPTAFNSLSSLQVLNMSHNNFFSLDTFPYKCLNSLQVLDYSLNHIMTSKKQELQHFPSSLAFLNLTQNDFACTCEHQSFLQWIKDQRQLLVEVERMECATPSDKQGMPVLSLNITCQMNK
T1 sequence (Q9Y6Y9 17-160 partner limits assumed): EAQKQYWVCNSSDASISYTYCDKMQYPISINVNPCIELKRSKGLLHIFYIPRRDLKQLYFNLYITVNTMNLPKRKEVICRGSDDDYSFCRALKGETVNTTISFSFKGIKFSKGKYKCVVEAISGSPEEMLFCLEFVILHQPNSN

Molecule: FQEFA [FQEFA dimer, dimer of FQEFA, peptide3A5 with the last five amino acids deleted]
binding to TLR4/MD-2, peptide3A5-derived peptides (TLR4/MD-2 complex): diminished the capacity of binding to TLR4/MD-2

Molecule: ILVIK [Divalent ILVIK, divalent peptide with two ILVIK motifs on a monolysine core, N-terminus acetylated]
competitive inhibitory activity against TLR4/MD-2, peptide3A5-derived peptides (S100A8-TLR4/MD-2 complex; listed as deletion mutant of the FQEFA amino acid sequences): sustained the competitive inhibitory activity
competitive inhibitory activity against TLR4/MD-2, peptide3A5-derived peptides (S100A8-TLR4/MD-2 complex; listed as divalent ILVIK): candidate inhibitor; also recorded: competitively inhibited S100A8 binding to TLR4/MD-2
tumor growth, multivalent ILVIK [3]: inhibits tumor growth
tumor growth, multivalent ILVIK ([3]; listed as divalent ILVIK): inhibited tumor growth in subcutaneously transplanted SW480 cells in a dose-dependent manner
induction of cytokines/chemokines [4]: suppress the induction of cytokines/chemokines in both tumor cells and macrophages

Molecule: Lys77: peptide #3 with substitution of Lys77 with alanine (FQEFLILVIA)
affinity for TLR4/MD-2, alanine scanning (human TLR4/MD-2 complex [1]): diminished the S100A8 activity of TLR4/MD-2 binding

B1: mouse S100A8: mouse S100A8 protein (protein, UniProt P27005 2-89, looked up)
Protein S100-A8: PSELEKALSNLIDVYHNYSNIQGNHHALYKNDFKKMVTTECPQFVQNINIENLFRELDINSDNAINFEEFLAMVIKVGVASHKDSHKE
binding to mouse TLR4/MD-2 (mouse TLR4/MD-2 complex): binds to the mouse TLR4/MD-2 complex via the carboxyl-terminal region

Second part, led by results:

affinity for TLR4/MD-2, alanine scanning (human TLR4/MD-2 complex [1]): increased the affinity for TLR4/MD-2
affinity for TLR4/MD-2, alanine scanning (human TLR4/MD-2 complex [1]; listed as Peptide3A5): increased binding affinity to TLR4/MD-2
Molecule: FQEFAILVIK [peptide3A5]
competitive inhibition, potency compared with parent (S100A8-TLR4/MD-2 complex): competed with the S100A8-TLR4/MD-2 complex at a lower dose than peptide #3
competitive inhibition, potency compared with parent (S100A8-TLR4/MD-2 complex; listed as Peptide3A5): more potent for competitive inhibition on S100A8-TLR4/MD-2 complex than peptide #3
S100A8-mediated VEGF induction (mRNA) (SW480 cells [2]): reduced
S100A8-mediated IL-8 induction (mRNA) (SW480 cells [2]; *P < 0.05 vs S100A8): reduced
pulmonary recruitment of PKH26-labeled LLC cells / lung metastasis (PKH26-labeled LLC cells): suppressed the pulmonary recruitment of tumor cells

binding to TLR4/MD-2, peptide3A5-derived peptides (TLR4/MD-2 complex): did not perform these activities
Molecule: ILVIK [monomeric ILVIK, monovalent ILVIK peptide, N-terminus acetylated]
competitive inhibitory activity against TLR4/MD-2, peptide3A5-derived peptides (S100A8-TLR4/MD-2 complex): did not perform these activities; also recorded: failed to obtain the competitive inhibitory activities against the TLR4/MD-2 complex

binding to human TLR4/MD-2 (in words) (human TLR4/MD-2 complex [5]): binds to human TLR4/MD-2 complex
Molecule: human S100A8: full length human S100A8 recombinant protein

Kd [6]: 4.58 to 8.78 nM
Molecule: human TLR4/MD-2 complex (from UniProt O00206 24-839; Q9Y6Y9 19-160)

binding to human TLR4/MD-2 (in words) (human TLR4/MD-2 complex [5]): hardly bound to the TLR4/MD-2 complex
binding to human TLR4/MD-2 (in words) (human TLR4/MD-2 complex [5]; listed as S100A8Lys77Ala): decreased affinity to TLR4/MD-2
B2: S100A8-Lys77Ala: S100A8-Lys77Ala recombinant protein (protein)
chain: MLTELEKALNSIIDVYHKYSLIKGNFHAVYRDDLKKLLETECPQYIRKKGADVWFKELDINTDGAVNFQEFLILVIAMGVAAHKKSHEESHKE
IL-8 production, S100A8 mutant (SW480 cells [7]): had no effect on IL-8 production
